Assay results reported in patent publication US10941157B2, “Pesticidal compositions and uses thereof” (Gilead Apollo, LLC, priority 2015, dated 2021).
Converted amounts (≈) assume the structure as drawn. Where two headings read alike, the source gives them in different places.

Legend:
Assay type in all cases: cell-based
Botrtyis cinerea (Bc) = experiment: In vitro pathogen growth inhibition assay, Bc; details: 48 h
How it was run: (§1)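 Value reported is the compound concentration reaching ≥90% growth inhibition, from OD readings at 24 and 48 h after blank subtraction, confirmed visually. Inoculum was spores diluted in 17% V8 medium, except Rs, using 1.5 mm mycelial plugs in ¼ PDB; actual compound concentration corrected via OD600.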

[1] = test system: Collectotrichum graminicola (Cg); experiment: In vitro pathogen growth inhibition assay, Cg; details: 48 h
How it was run: as §1

Diplodia maydis (Dm) = experiment: In vitro pathogen growth inhibition assay, Dm; details: Stenocarpella maydis, 48 h
How it was run: (§2)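 Spores in 17% V8 liquid medium, or 1.5 mm Rs mycelial plugs in ¼ PDB, incubated with compound; final concentration checked by OD600 for precipitation. OD readings at 24 and 48 h, blank-subtracted, plus visual ratings; value is concentration giving ≥90% growth inhibition.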

[2] = test system: Fusarium moniliforme (Fm); experiment: In vitro pathogen growth inhibition assay, Fm; details: Fusarium verticillioides
How it was run: as §1

[3] = test system: Fusarium virguliforme (Fv); experiment: In vitro pathogen growth inhibition assay, Fv
How it was run: as §2

[4] = test system: Phytophthora capsici (Pc); experiment: In vitro pathogen growth inhibition assay, Pc; details: 48 h
How it was run: as §2

Rhizoctonia solani (Rs) = experiment: In vitro pathogen growth inhibition assay, Rs (mycelial plugs); details: Rhizoctonia solani, 48 h
How it was run: as §2

Septoria tritici (St) = experiment: In vitro pathogen growth inhibition assay, St; details: Zymoseptoria tritici, 48 h
How it was run: as §1

[5] = ≥90% growth inhibition, 48 hours, vs 2% DMSO control, read-out: Compound Concentration (ppm) sufficient for ≥90% inhibition of Bc
[6] = ≥90% growth inhibition, 48 hours, vs 2% DMSO control, read-out: Compound Concentration (ppm) sufficient for ≥90% inhibition of Cg
[7] = ≥90% growth inhibition, 48 hours, vs 2% DMSO control, read-out: Compound Concentration (ppm) sufficient for ≥90% inhibition of Dm
[8] = ≥90% growth inhibition, 48 hours, vs 2% DMSO control, read-out: Compound Concentration (ppm) sufficient for ≥90% inhibition of Fm
[9] = ≥90% growth inhibition, 48 hours, vs 2% DMSO control, read-out: Compound Concentration (ppm) sufficient for ≥90% inhibition of Fv
[10] = ≥90% growth inhibition, 48 hours, vs 2% DMSO control, read-out: Compound Concentration (ppm) sufficient for ≥90% inhibition of Pc
[11] = ≥90% growth inhibition, mycelial plugs, 48 hours, vs 2% DMSO control, read-out: Compound Concentration (ppm) sufficient for ≥90% inhibition of Rs
[12] = ≥90% growth inhibition, 48 hours, vs 2% DMSO control, read-out: Compound Concentration (ppm) sufficient for ≥90% inhibition of St
[13] = concentration sufficient to ≥90% inhibition of growth, 48 hours vs 2% DMSO control, read-out: Compound Concentration (ppm) for ≥90% inhibition, Bc
[14] = concentration sufficient to ≥90% inhibition of growth, 48 hours vs 2% DMSO control, read-out: Compound Concentration (ppm) for ≥90% inhibition, Cg
[15] = concentration sufficient to ≥90% inhibition of growth, 48 hours vs 2% DMSO control, read-out: Compound Concentration (ppm) for ≥90% inhibition, Dm
[16] = concentration sufficient to ≥90% inhibition of growth, 48 hours vs 2% DMSO control, read-out: Compound Concentration (ppm) for ≥90% inhibition, Fm
[17] = concentration sufficient to ≥90% inhibition of growth, 48 hours vs 2% DMSO control, read-out: Compound Concentration (ppm) for ≥90% inhibition, Fv
[18] = concentration sufficient to ≥90% inhibition of growth, 48 hours vs 2% DMSO control, read-out: Compound Concentration (ppm) for ≥90% inhibition, Pc
[19] = concentration sufficient to ≥90% inhibition of growth, 48 hours vs 2% DMSO control, read-out: Compound Concentration (ppm) for ≥90% inhibition, Rs
[20] = concentration sufficient to ≥90% inhibition of growth, 48 hours vs 2% DMSO control, read-out: Compound Concentration (ppm) for ≥90% inhibition, St

Row | Compound | IC90 (Botrtyis cinerea (Bc); [5]) [µg/mL] | IC90 [1, 6] [µg/mL] | IC90 (Diplodia maydis (Dm); [7]) [µg/mL] | IC90 [2, 8] [µg/mL] | IC90 [3, 9] [µg/mL] | IC90 [4, 10] [µg/mL] | IC90 (Rhizoctonia solani (Rs); [11]) [µg/mL] | IC90 (Septoria tritici (St); [12]) [µg/mL] | IC90 (Botrtyis cinerea (Bc); [13]) [µg/mL] | IC90 [1, 14] [µg/mL] | IC90 (Diplodia maydis (Dm); [15]) [µg/mL] | IC90 [2, 16] [µg/mL] | IC90 [3, 17] [µg/mL] | IC90 [4, 18] [µg/mL] | IC90 (Rhizoctonia solani (Rs); [19]) [µg/mL] | IC90 (Septoria tritici (St); [20]) [µg/mL]
1 | COc1ccc(F)cc1[C@H](Cn1c(=O)n([C@@H](C)C(=O)N2CCCC2)c(=O)c2c(C)c(-n3nccn3)sc21)OCCC#N [Compound I-201] | 2 (≈ 3.36 µM) | 10 (≈ 16.8 µM) | ≥ 2 | 0.4 (≈ 0.672 µM) | ≥ 0.4 | > 50 | 0.08 (≈ 0.134 µM) | > 50 | – | – | – | – | – | – | – | –
2 | COc1ccc(F)cc1[C@H](Cn1c(=O)n(C(C)(C)C(=O)N2CCCC2)c(=O)c2c(C)c(-n3cccn3)sc21)OCCC#N [Compound I-203] | – | – | – | – | – | – | – | – | 50 (≈ 82.1 µM) | 50 (≈ 82.1 µM) | 50 (≈ 82.1 µM) | 10 (≈ 16.4 µM) | 50 (≈ 82.1 µM) | > 50 | 10 (≈ 16.4 µM) | > 50
3 | COc1ccc(F)cc1[C@H](Cn1c(=O)n([C@@H](C)C(=O)N(C)C(C)C)c(=O)c2c(C)c(-n3nccn3)sc21)OCCC#N [Compound I-204] | 2 (≈ 3.35 µM) | 10 (≈ 16.7 µM) | 2 (≈ 3.35 µM) | 0.4 (≈ 0.669 µM) | 2 (≈ 3.35 µM) | > 50 | 2 (≈ 3.35 µM) | > 50 | – | – | – | – | – | – | – | –
4 | COc1ccc(F)cc1[C@@H](O)Cn1c(=O)n(C(C)(C)C(=O)N2CCCC2)c(=O)c2c(C)c(-n3nccn3)sc21 [Compound I-214] | 2 (≈ 3.59 µM) | 2 (≈ 3.59 µM) | ≥ 10 | 0.4 (≈ 0.719 µM) | 2 (≈ 3.59 µM) | > 50 | 0.08 (≈ 0.144 µM) | > 50 | – | – | – | – | – | – | – | –
5 | COc1ccccc1[C@@H](O)Cn1c(=O)n(C(C)(C)C(=O)N2CCCC2)c(=O)c2c(C)c(-n3nccn3)sc21 [Compound I-215] | – | – | – | – | – | – | – | – | 10 (≈ 18.6 µM) | 50 (≈ 92.8 µM) | > 50 | 10 (≈ 18.6 µM) | 10 (≈ 18.6 µM) | > 50 | 0.08 (≈ 0.149 µM) | > 50
6 | CCOC(=O)c1sc2c(c1C)c(=O)n([C@@H](C)C(=O)NC(C)C)c(=O)n2C[C@H](OCCC#N)c1cc(F)ccc1OC [Compound I-219] | 2 (≈ 3.4 µM) | 10 (≈ 17 µM) | > 10 | 0.4 (≈ 0.68 µM) | ≥ 10 | > 50 | > 50 | > 50 | – | – | – | – | – | – | – | –

Now from value to compound:

Row | IC90 (Botrtyis cinerea (Bc); [5]) [µg/mL] | IC90 [1, 6] [µg/mL] | IC90 (Diplodia maydis (Dm); [7]) [µg/mL] | IC90 [2, 8] [µg/mL] | IC90 [3, 9] [µg/mL] | IC90 [4, 10] [µg/mL] | IC90 (Rhizoctonia solani (Rs); [11]) [µg/mL] | IC90 (Septoria tritici (St); [12]) [µg/mL] | IC90 (Botrtyis cinerea (Bc); [13]) [µg/mL] | IC90 [1, 14] [µg/mL] | IC90 (Diplodia maydis (Dm); [15]) [µg/mL] | IC90 [2, 16] [µg/mL] | IC90 [3, 17] [µg/mL] | IC90 [4, 18] [µg/mL] | IC90 (Rhizoctonia solani (Rs); [19]) [µg/mL] | IC90 (Septoria tritici (St); [20]) [µg/mL] | Compound
7 | 2 (≈ 3.51 µM) | 10 (≈ 17.6 µM) | ≥ 2 | 0.08 (≈ 0.14 µM) | 2 (≈ 3.51 µM) | > 50 | 0.08 (≈ 0.14 µM) | > 50 | – | – | – | – | – | – | – | – | CNC(=O)C(C)(C)n1c(=O)c2c(C)c(-n3nccn3)sc2n(C[C@H](OCCC#N)c2cc(F)ccc2OC)c1=O [Compound I-207]
8 | 2 (≈ 3.63 µM) | 50 (≈ 90.6 µM) | ≥ 10 | 0.08 (≈ 0.145 µM) | 10 (≈ 18.1 µM) | > 50 | 0.08 (≈ 0.145 µM) | > 50 | – | – | – | – | – | – | – | – | CNC(=O)C(C)(C)n1c(=O)c2c(C)c(-n3nccn3)sc2n(C[C@H](OCCC#N)c2ccccc2OC)c1=O [Compound I-209]
9 | 10 (≈ 18.4 µM) | 10 (≈ 18.4 µM) | 50 (≈ 92.2 µM) | 2 (≈ 3.69 µM) | 2 (≈ 3.69 µM) | ≥ 50 | 2 (≈ 3.69 µM) | > 50 | – | – | – | – | – | – | – | – | COc1ccc(F)cc1[C@@H](O)Cn1c(=O)n([C@@H](C)C(=O)N2CCCC2)c(=O)c2c(C)c(-n3nccn3)sc21 [Compound I-218]
10 | – | – | – | – | – | – | – | – | 10 (≈ 19.9 µM) | 50 (≈ 99.5 µM) | > 50 | 10 (≈ 19.9 µM) | 50 (≈ 99.5 µM) | > 50 | > 50 | > 50 | COc1ccc(F)cc1[C@@H](O)Cn1c(=O)n(C(C)(C)C(N)=O)c(=O)c2c(C)c(-n3nccn3)sc21 [Compound I-221]
11 | 2 (≈ 3.69 µM) | 2 (≈ 3.69 µM) | 10 (≈ 18.4 µM) | 0.4 (≈ 0.737 µM) | 0.4 (≈ 0.737 µM) | > 50 | 0.4 (≈ 0.737 µM) | 50 (≈ 92.2 µM) | – | – | – | – | – | – | – | – | COc1ccc(F)cc1[C@@H](O)Cn1c(=O)n([C@H](C)C(=O)N2CCCC2)c(=O)c2c(C)c(-n3nccn3)sc21 [Compound I-222]
